Data from patent publication US8455497B2, “Inhibitors of aspartyl protease” (Vertex Pharmaceuticals Incorporated, priority 1999, dated 2013).

Key:
[1] = system: EP13 multi protease inhibitor resistant virus; test: Anti-viral activity against resistant virus EP13 in MT4 cells; assay type: cell-based, HIV-1; conditions: Human immunodeficiency virus 1, MT4, read-out: EP13 mutant IC50, EP13 multi protease inhibitor resistant virus, MT4 cells
Summary of the method: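 MT4 cells infected for 1 h at 37 °C, MOI 100×TCID50, then diluted 6-fold onto pre-diluted compound and cultured 5 days (5% CO2). Viable-cell DNA content estimated by propidium iodide. EP13 carries protease mutations M46I, L63P, A71V, V82F/L, I84V, no RT mutations.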

[2] = system: D545701-14 multi protease inhibitor resistant virus; test: Anti-viral activity against resistant virus D545701-14 in MT4 cells; assay type: cell-based, HIV-1; conditions: Human immunodeficiency virus 1, MT4, read-out: D545701-14 mutant - IC50, D545701-14 multi protease inhibitor resistant virus, MT4 cells
HIV-1 (strain IIIB) = test: Antiviral activity assay in MT4 cells (propidium iodide based); assay type: cell-based; conditions: Human immunodeficiency virus 1, IIIB; wild type HIV-1 virus, MT4 cells; read-out: Wildtype virus - IC50
Summary of the method: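 MT4 cells infected with HIV-1 IIIB (MOI 100×TCID50, 1 hr, 37°C), diluted 6-fold into wells with serially diluted compound, incubated 5 days. Cells lysed with Nonidet-40; DNA content per well estimated by propidium iodide staining as the viability read-out, with mock-infected controls.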

CC(C)CN(C[C@@H](O)[C@H](Cc1ccc(OC(=O)NCCn2ccnc2)cc1)NC(=O)O[C@H]1CO[C@H]2OCC[C@H]21)S(=O)(=O)c1ccc2c(c1)OCO2 [Compound 313, (3R,3aS,6aR)-Hexahydrofuro[2,3-b]furan-3-yl (1S,2R)-3-[(1,3-benzodioxol-5-ylsulfonyl)(isobutyl)amino]-2-hydroxy-1-{4-[({[2-(1H-imidazol-1-yl)ethyl]amino}carbonyl)oxy]benzyl}propylcarbamate]
IC50 [1]: 1 to 10 nM | IC50 [2]: 1 to 10 nM | IC50 (HIV-1 (strain IIIB)): 10 to 100 nM

CC(C)CN(C[C@@H](O)[C@H](Cc1ccc(OCC(N)=O)cc1)NC(=O)O[C@H]1CO[C@H]2OCC[C@H]21)S(=O)(=O)c1ccc2c(c1)OCO2 [Compound 314, (3R,3aS,6aR)-Hexahydrofuro[2,3-b]furan-3-yl (1S,2R)-1-[4-(2-amino-2-oxoethoxy)benzyl]-3-[(1,3-benzodioxol-5-ylsulfonyl)(isobutyl)amino]-2-hydroxypropylcarbamate]
IC50 [1]: 10 to 100 nM | IC50 [2]: 10 to 100 nM | IC50 (HIV-1 (strain IIIB)): 10 to 100 nM

CNC(=O)COc1ccc(C[C@H](NC(=O)O[C@H]2CO[C@H]3OCC[C@H]32)[C@H](O)CN(CC(C)C)S(=O)(=O)c2ccc3c(c2)OCO3)cc1 [Compound 315, (3R,3aS,6aR)-Hexahydrofuro[2,3-b]furan-3-yl (1S,2R)-3[(1,3-benzodioxol-5-ylsulfonyl)(isobutyl)amino]-2-hydroxy-1-{4-[2-(methylamino)-2-oxoethoxy]benzyl}propylcarbamate]
IC50 [1]: 1 to 10 nM | IC50 [2]: 1 to 10 nM | IC50 (HIV-1 (strain IIIB)): 10 to 100 nM

CC(C)CN(C[C@@H](O)[C@H](Cc1ccc(OCCCCO)cc1)NC(=O)O[C@H]1CO[C@H]2OCC[C@H]21)S(=O)(=O)c1ccc2c(c1)OCO2 [Compound 317, (3R,3aS,6aR)-Hexahydrofuro[2,3-b]furan-3-yl (1S,2R)-3-[(1,3-benzodioxol-5-ylsulfonyl)(isobutyl)amino]-2-hydroxy-1-[4-(4-hydroxybutoxy)benzyl]propylcarbamate]
IC50 [1]: 1 to 10 nM | IC50 [2]: 1 to 10 nM | IC50 (HIV-1 (strain IIIB)): 1 to 10 nM

CNC(=O)OCCCCOc1ccc(C[C@H](NC(=O)O[C@H]2CO[C@H]3OCC[C@H]32)[C@H](O)CN(CC(C)C)S(=O)(=O)c2ccc3c(c2)OCO3)cc1 [Compound 318, (3R,3aS,6aR)-Hexahydrofuro[2,3-b]furan-3-yl (1S,2R)-3-[(1,3-benzodioxol-5-ylsulfonyl)(isobutyl)amino]-2-hydroxy-1-[4-(4-{[(methylamino)carbonyl]oxy}butoxy)benzyl]propylcarbamate]
IC50 [1]: 1 to 10 nM | IC50 [2]: 1 to 10 nM | IC50 (HIV-1 (strain IIIB)): 1 to 10 nM

CC(C)CN(C[C@@H](O)[C@H](Cc1ccc(OCCCO)cc1)NC(=O)O[C@H]1CO[C@H]2OCC[C@H]21)S(=O)(=O)c1ccc2c(c1)OCO2 [Compound 319, (3R,3aS,6aR)-Hexahydrofuro[2,3-b]furan-3-yl (1S,2R)-3-[(1,3-benzodioxol-5-ylsulfonyl)(isobutyl)amino]-2-hydroxy-1-[4-(3-hydroxypropoxy)benzyl]propylcarbamate]
IC50 [1]: 1 to 10 nM | IC50 [2]: 1 to 10 nM | IC50 (HIV-1 (strain IIIB)): 1 to 10 nM

CNC(=O)OCCCOc1ccc(C[C@H](NC(=O)O[C@H]2CO[C@H]3OCC[C@H]32)[C@H](O)CN(CC(C)C)S(=O)(=O)c2ccc3c(c2)OCO3)cc1 [Compound 320, (3R,3aS,6aR)-Hexahydrofuro[2,3-b]furan-3-yl (1S,2R)-3[(1,3-benzodioxol-5-ylsulfonyl)(isobutyl)amino]-2-hydroxy-1-[4-(3-{[(methylamino)carbonyl]oxy}propoxy)benzyl]propylcarbamate]
IC50 [1]: 1 to 10 nM | IC50 [2]: 1 to 10 nM | IC50 (HIV-1 (strain IIIB)): 1 to 10 nM

CC(C)CN(C[C@@H](O)[C@H](Cc1ccc(OCCCOC(N)=O)cc1)NC(=O)O[C@H]1CO[C@H]2OCC[C@H]21)S(=O)(=O)c1ccc2c(c1)OCO2 [Compound 321, (3R,3aS,6aR)-Hexahydrofuro[2,3-b]furan-3-yl (1S,2R)-1-(4-{3-[(aminocarbonyl)oxy]propoxy}benzyl)-3-[(1,3-benzodioxol-5-ylsulfonyl)(isobutyl)amino]-2-hydroxypropylcarbamate]
IC50 [1]: 1 to 10 nM | IC50 [2]: 1 to 10 nM | IC50 (HIV-1 (strain IIIB)): 1 to 10 nM

CC(C)CN(C[C@@H](O)[C@H](Cc1ccc(OCCO)cc1)NC(=O)O[C@H]1CO[C@H]2OCC[C@H]21)S(=O)(=O)c1ccc2c(c1)OCO2 [Compound 322, (3R,3aS,6aR)-Hexahydrofuro[2,3-b]furan-3-yl (1S,2R)-3-[(1,3-benzodioxol-5-ylsulfonyl)(isobutyl)amino]-2-hydroxy-1-[4-(2-hydroxyethoxy)benzyl]propylcarbamate]
IC50 [1]: 1 to 10 nM | IC50 [2]: 1 to 10 nM | IC50 (HIV-1 (strain IIIB)): 1 to 10 nM

CNC(=O)OCCOc1ccc(C[C@H](NC(=O)O[C@H]2CO[C@H]3OCC[C@H]32)[C@H](O)CN(CC(C)C)S(=O)(=O)c2ccc3c(c2)OCO3)cc1 [Compound 323, (3R,3aS,6aR)-Hexahydrofuro[2,3-b]furan-3-yl (1S,2R)-3-[(1,3-benzodioxol-5-ylsulfonyl)(isobutyl)amino]-2-hydroxy-1-[4-(2-{[(methylamino)carbonyl]oxy}ethoxy)benzyl]propylcarbamate]
IC50 [1]: 1 to 10 nM | IC50 [2]: 1 to 10 nM | IC50 (HIV-1 (strain IIIB)): 1 to 10 nM

CC(C)CN(C[C@@H](O)[C@H](Cc1ccc(OCCN2CCSC2)cc1)NC(=O)O[C@H]1CO[C@H]2OCC[C@H]21)S(=O)(=O)c1ccc2c(c1)OCO2 [Compound 324, (3R,3aS,6aR)-Hexahydrofuro[2,3-b]furan-3-yl (1S,2R)-3-[(1,3-benzodioxol-5-ylsulfonyl)(isobutyl)amino]-2-hydroxy-1-{4-[2-(1,3-thiazolidin-3-yl)ethoxy]benzyl}propylcarbamate]
IC50 [1]: 1 to 10 nM | IC50 [2]: 1 to 10 nM | IC50 (HIV-1 (strain IIIB)): 1 to 10 nM

CCOC(=O)COc1ccc(C[C@H](NC(=O)O[C@H]2CO[C@H]3OCC[C@H]32)[C@H](O)CN(CC(C)C)S(=O)(=O)c2ccc3c(c2)OCO3)cc1 [Compound 326, Ethyl (4-{(2S,3R)-2-({[(3R,3aS,6aR)-hexahydrofuro[2,3-b]furan-3-yloxy]carbonyl}amino)-4-[(1,3-benzodioxol-5-ylsulfonyl)(isobutyl)amino]-3-hydroxybutyl}phenoxy) acetate]
IC50 [1]: 10 to 100 nM | IC50 [2]: 10 to 100 nM | IC50 (HIV-1 (strain IIIB)): 1 to 10 nM

CCC(CC)ON(C[C@@H](O)[C@H](Cc1ccc(OCc2ccccc2)cc1)NC(=O)O[C@H]1CO[C@H]2OCC[C@H]21)S(=O)(=O)c1ccc2c(c1)OCO2 [Compound 329, (3R,3aS,6aR)-Hexahydrofuro[2,3-b]furan-3-yl (1S,2R)-3-[(1,3-benzodioxol-5-ylsulfonyl)(1-ethylpropoxy)amino]-1-[4-(benzyloxy)benzyl]-2-hydroxypropylcarbamate]
IC50 [1]: 10 to 100 nM | IC50 [2]: 10 to 100 nM | IC50 (HIV-1 (strain IIIB)): 1 to 10 nM

CC(C)CN(C[C@@H](O)[C@H](Cc1ccc(OC(=N)N(C)C)cc1)NC(=O)O[C@H]1CO[C@H]2OCC[C@H]21)S(=O)(=O)c1ccc2c(c1)OCO2 [Compound 331, (3R,3aS,6aR)-Hexahydrofuro[2,3-b]furan-3-yl (1S,2R)-3-[(1,3-benzodioxol-5-ylsulfonyl)(isobutyl)amino]-1-{4-[(dimethylamino) (imino)methoxy]benzyl}-2-hydroxypropylcarbamate]
IC50 [1]: 10 to 100 nM | IC50 [2]: 10 to 100 nM | IC50 (HIV-1 (strain IIIB)): 10 to 100 nM

CC(C)CN(C[C@@H](O)[C@H](Cc1ccc(Oc2nc(F)c(F)c(F)c2F)cc1)NC(=O)O[C@H]1CO[C@H]2OCC[C@H]21)S(=O)(=O)c1ccc2c(c1)OCO2 [Compound 332, (3R,3aS,6aR)-hexahydrofuro[2,3-b]furan-3-yl (1S,2R)-3-[(1,3-benzodioxol-5-ylsulfonyl)(isobutyl)amino]-2-hydroxy-1-{4-[(3,4,5,6-tetrafluoro-2-pyridinyl)oxy]benzyl}propylcarbamate]
IC50 [1]: 1 to 10 nM | IC50 [2]: 10 to 100 nM | IC50 (HIV-1 (strain IIIB)): 1 to 10 nM

CC(C)CN(C[C@@H](O)[C@H](Cc1ccc(Oc2ccc([N+](=O)[O-])cn2)cc1)NC(=O)O[C@H]1CO[C@H]2OCC[C@H]21)S(=O)(=O)c1ccc2c(c1)OCO2 [Compound 333, (3R,3aS,6aR)-hexahydrofuro[2,3-b]furan-3-yl (1S,2R)-3-[(1,3-benzodioxol-5-ylsulfonyl)(isobutyl)amino]-2-hydroxy-1-{4-[(5-nitro-2-pyridinyl)oxy]benzyl}propylcarbamate]
IC50 [1]: 1 to 10 nM | IC50 [2]: 1 to 10 nM | IC50 (HIV-1 (strain IIIB)): 1 to 10 nM

CC(C)CN(C[C@@H](O)[C@H](Cc1ccc(Oc2c(C(=O)O)cc([N+](=O)[O-])cc2[N+](=O)[O-])cc1)NC(=O)O[C@H]1CO[C@H]2OCC[C@H]21)S(=O)(=O)c1ccc2c(c1)OCO2 [Compound 334, 2-(4-{(2S,3R)-2-({[(3R,3aS,6aR)-hexahydrofuro[2,3-b]furan-3-yloxy]carbonyl}amino)-4-[(1,3-benzodioxol-5-ylsulfonyl)(isobutyl)amino]-3-hydroxybutyl}phenoxy)-3,5-dinitrobenzoic Acid]
IC50 [1]: 1 to 10 nM | IC50 [2]: 1 to 10 nM | IC50 (HIV-1 (strain IIIB)): 1 to 10 nM

CC(C)CN(C[C@@H](O)[C@H](Cc1ccc(Oc2ccc(C#N)cn2)cc1)NC(=O)O[C@H]1CO[C@H]2OCC[C@H]21)S(=O)(=O)c1ccc2c(c1)OCO2 [Compound 335, (3R,3aS,6aR)-hexahydrofuro[2,3-b]furan-3-yl (1S,2R)-3-[(1,3-benzodioxol-5-ylsulfonyl)(isobutyl)amino]-1-{4-[(S-cyano-2-pyridinyl)oxy]benzyl}-2-hydroxypropylcarbamate]
IC50 [1]: 1 to 10 nM | IC50 [2]: 1 to 10 nM | IC50 (HIV-1 (strain IIIB)): 1 to 10 nM
